Source: patent US20120053168A1, “FUSED BENZOAZEPINES AS NEURONAL NICOTINIC ACETYLCHOLINE RECEPTOR LIGANDS” (Targacept, Inc., priority 2009, published 2012)

Legend:
[1] = biological target: T1, human ganglionic nAChR subtype (Homo sapiens, UniProt P30926+P32297); test: 86Rb+ efflux in SH-SY5Y cells (human ganglionic nAChR subtype); assay type: cell-based
T1 construct: endogenous in cells; host or cells: SH-SY5Y human neuroblastoma cells
Description: Example 8: Interaction at the Human Ganglionic nAChR Subtype
The cell line SH-SY5Y is a continuous line derived by sequential subcloning of the parental cell line, SK-N-SH, which was originally obtained from a human peripheral neuroblastoma. SH-SY5Y cells express a ganglion-like nAChR (Lukas et al., Mol. Cell. Neurosci. 4: 1 (1993)).
Human SH-SY5Y cells were maintained in proliferative growth phase according to routine protocols (Bencherif et al., Mol. Cell. Neurosci. 2: 52 (1991) and Bencherif et al., J. Pharmacol. Exp. Ther. 257: 946 (1991)). Cells were cultured in Dulbecco's modified Eagle's medium (Gibco/BRL) with 10% horse serum (Gibco/BRL), 5% fetal bovine serum (HyClone, Logan Utah), 1 mM sodium pyruvate, 4 mM L-Glutamine, and 50,000 units penicillin-streptomycin (Irvine Scientific). When cells were 80% confluent, they were plated to 12 well polystyrene plates (Costar). […]
Nicotinic acetylcholine receptor (nAChR) function was assayed using ^86Rb^+efflux according to a method described by Lukas et al., Anal. Biochem. 175: 212 (1988). […] Scintillation fluid was added and released radioactivity was measured by liquid scintillation counting. […]
When appropriate, dose-response curves of test compound were determined. The maximal activation for individual compounds (Emax) was determined as a percentage of the maximal activation induced by L-nicotine. […]

[2] = biological target: T2, human muscle nAChR subtype (Homo sapiens, UniProt P02708+P07510+Q07001); test: 86Rb+ efflux in TE671/RD cells (human muscle nAChR subtype); assay type: cell-based
T2 construct: endogenous in cells; host or cells: TE671/RD human rhabdomyosarcoma cells
Description: Example 7: Interaction at the Human Muscle nAChR Subtype
Activation of muscle-type nAChRs was established on the human clonal line TE671/RD, which is derived from an embryonal rhabdomyosarcoma (Stratton et al., Carcinogen 10: 899 (1989)). These cells express receptors that have pharmacological (Lukas, J. Pharmacol. Exp. Ther. 251: 175 (1989)), electrophysiological (Oswald et al., Neurosci. Lett. 96: 207 (1989)), and molecular biological profiles (Luther et al., J. Neurosci. 9: 1082 (1989)) similar to the muscle-type nAChR.
TE671/RD cells were maintained in proliferative growth phase according to routine protocols (Bencherif et al., Mol. Cell. Neurosci. 2: 52 (1991) and Bencherif et al., J. Pharmacol. Exp. Ther. 257: 946 (1991)). […]
Nicotinic acetylcholine receptor (nAChR) function was assayed using ^86Rb^+efflux according to the method described by Lukas et al., Anal. Biochem. 175: 212 (1988). […] Scintillation fluid was added and released radioactivity was measured by liquid scintillation counting. […]
When appropriate, dose-response curves of test compound were determined. The maximal activation for individual compounds (Emax) was determined as a percentage of the maximal activation induced by L-nicotine. The compound concentration resulting in half maximal activation (EC50) of specific ion flux was also determined.

[3] = percentage of maximal activation induced by L-nicotine

T2 sequence (P02708 21-457): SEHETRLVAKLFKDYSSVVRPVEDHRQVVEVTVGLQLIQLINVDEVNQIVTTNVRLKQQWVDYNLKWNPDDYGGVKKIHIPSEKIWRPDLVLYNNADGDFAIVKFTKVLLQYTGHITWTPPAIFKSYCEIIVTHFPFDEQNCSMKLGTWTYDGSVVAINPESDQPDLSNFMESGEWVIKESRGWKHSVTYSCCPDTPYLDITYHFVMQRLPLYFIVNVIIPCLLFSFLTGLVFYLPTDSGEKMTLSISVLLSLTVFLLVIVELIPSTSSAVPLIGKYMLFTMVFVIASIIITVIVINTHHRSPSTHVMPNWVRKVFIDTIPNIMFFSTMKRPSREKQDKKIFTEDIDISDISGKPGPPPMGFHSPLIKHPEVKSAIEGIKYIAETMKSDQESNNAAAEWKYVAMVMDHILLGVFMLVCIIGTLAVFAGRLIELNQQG
T2 sequence (P07510 23-517): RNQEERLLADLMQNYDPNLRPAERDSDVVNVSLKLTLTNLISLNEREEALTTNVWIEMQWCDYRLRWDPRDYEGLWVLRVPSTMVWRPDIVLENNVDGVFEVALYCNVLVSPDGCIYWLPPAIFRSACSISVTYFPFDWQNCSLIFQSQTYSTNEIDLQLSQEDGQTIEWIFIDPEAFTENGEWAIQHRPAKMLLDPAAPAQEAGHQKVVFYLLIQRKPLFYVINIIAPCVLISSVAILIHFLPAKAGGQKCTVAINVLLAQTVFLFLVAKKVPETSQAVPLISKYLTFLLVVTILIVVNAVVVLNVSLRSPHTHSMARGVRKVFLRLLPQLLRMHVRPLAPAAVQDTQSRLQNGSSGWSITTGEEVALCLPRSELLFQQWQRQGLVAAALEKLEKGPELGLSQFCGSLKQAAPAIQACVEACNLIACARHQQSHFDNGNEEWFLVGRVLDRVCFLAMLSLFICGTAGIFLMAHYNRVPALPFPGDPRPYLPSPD
T2 sequence (Q07001 22-517): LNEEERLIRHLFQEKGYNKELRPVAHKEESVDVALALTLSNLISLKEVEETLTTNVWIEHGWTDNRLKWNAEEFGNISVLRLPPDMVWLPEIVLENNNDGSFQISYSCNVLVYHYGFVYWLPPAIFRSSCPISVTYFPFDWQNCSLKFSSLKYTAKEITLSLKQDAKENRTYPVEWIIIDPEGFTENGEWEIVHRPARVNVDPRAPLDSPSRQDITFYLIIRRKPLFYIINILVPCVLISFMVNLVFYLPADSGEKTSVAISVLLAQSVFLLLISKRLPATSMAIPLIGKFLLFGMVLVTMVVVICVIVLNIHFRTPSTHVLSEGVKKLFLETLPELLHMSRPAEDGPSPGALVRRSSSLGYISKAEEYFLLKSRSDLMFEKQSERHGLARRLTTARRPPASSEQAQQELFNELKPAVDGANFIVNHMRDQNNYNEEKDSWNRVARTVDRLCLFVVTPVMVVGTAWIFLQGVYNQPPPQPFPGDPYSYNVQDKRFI
T2 sequence (P11230 24-501 partner): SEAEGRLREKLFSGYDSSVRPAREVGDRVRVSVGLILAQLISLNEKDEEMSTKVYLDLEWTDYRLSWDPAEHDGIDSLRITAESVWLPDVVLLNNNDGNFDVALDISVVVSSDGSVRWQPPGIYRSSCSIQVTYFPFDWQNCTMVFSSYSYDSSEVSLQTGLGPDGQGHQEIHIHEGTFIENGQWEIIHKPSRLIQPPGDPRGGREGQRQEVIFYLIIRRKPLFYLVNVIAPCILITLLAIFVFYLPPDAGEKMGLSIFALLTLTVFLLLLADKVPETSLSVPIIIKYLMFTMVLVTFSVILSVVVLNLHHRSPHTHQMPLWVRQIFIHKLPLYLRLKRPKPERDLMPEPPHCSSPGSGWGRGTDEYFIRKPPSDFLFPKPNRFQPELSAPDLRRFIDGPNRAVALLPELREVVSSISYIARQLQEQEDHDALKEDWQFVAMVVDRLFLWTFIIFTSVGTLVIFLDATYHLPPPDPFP
T1 sequence (P32297 32-505): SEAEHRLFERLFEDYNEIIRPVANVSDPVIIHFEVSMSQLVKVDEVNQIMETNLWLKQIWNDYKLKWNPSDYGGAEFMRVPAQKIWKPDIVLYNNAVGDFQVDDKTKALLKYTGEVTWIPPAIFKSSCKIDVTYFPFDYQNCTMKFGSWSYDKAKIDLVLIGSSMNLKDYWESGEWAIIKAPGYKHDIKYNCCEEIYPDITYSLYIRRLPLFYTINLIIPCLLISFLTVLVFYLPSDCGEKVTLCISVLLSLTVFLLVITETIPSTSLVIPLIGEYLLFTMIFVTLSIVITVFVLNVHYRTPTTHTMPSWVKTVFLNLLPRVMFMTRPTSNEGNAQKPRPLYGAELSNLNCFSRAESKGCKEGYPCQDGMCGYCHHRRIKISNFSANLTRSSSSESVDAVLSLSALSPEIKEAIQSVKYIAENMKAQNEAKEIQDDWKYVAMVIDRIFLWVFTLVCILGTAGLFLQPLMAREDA
T1 sequence (P30926 22-498): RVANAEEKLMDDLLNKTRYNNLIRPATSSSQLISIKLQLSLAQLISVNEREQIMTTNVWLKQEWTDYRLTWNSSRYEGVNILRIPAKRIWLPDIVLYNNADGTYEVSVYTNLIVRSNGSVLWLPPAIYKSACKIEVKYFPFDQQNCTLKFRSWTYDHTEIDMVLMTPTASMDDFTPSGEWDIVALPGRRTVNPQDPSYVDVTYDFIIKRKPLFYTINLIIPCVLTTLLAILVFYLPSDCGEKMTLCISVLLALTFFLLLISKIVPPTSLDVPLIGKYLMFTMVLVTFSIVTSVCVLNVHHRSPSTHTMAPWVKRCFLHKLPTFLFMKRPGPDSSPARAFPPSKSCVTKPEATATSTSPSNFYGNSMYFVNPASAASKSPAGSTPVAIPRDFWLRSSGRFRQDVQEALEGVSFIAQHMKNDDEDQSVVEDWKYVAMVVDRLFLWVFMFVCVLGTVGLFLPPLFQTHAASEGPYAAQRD

c1cnc2cc3c(cc2n1)CCNCC3 [Compound A, 7,8,9,10-tetrahydro-6H-azepino[4,5-g]quinoxaline]
EC50 ([1]; 86Rb+ efflux): 4.4 µM | Emax [1, 3]: 21% | EC50 ([2]; 86Rb+ efflux): 75 µM | Emax [2, 3]: 23%
